From ChEMBL document CHEMBL1139939, “Synthesis and biological activity of naphthalene analogues of phenstatins: naphthylphenstatins” (Bioorg Med Chem Lett, 2007)

Columns and labels:
[1] = target: T1, Tubulin (Homo sapiens) (UniProt P68371+Q9H4B7+P0DPH7+P68366+Q13509+Q71U36+P04350+Q3ZCM7+P07437+P68363+Q9BQE3+Q6PEY2+Q13885+Q9BVA1+Q9BUF5); assay: Inhibition of tubulin polymerization at 20 uM; format: protein-complex assay
[2] = tested on: HT-29; assay: Cytotoxicity against human HT29 cells; format: functional, cell-based
[3] = tested on: HeLa; assay: Cytotoxicity against human HeLa cells; format: functional, cell-based
[4] = tested on: A549; assay: Cytotoxicity against human A549 cells; format: functional, cell-based
[5] = target: T1, Tubulin (Homo sapiens); assay: Inhibition of tubulin polymerization at 40 uM; format: protein-complex assay

Row | inhibition [1] [%] | inhibition [5] [%] | SMILES | IC50 [2] [µM] | IC50 [3] [µM] | IC50 [4] [µM]
1 | 26 |  | COc1ccc(C(OC(C)=O)c2ccc3ccccc3c2)c(OC)c1OC (centres undefined) | > 10 | 2.7 | > 10
2 |  | 100 | COc1cc(C(=O)c2ccc3ccccc3c2)cc(OC)c1OC |  | 0.042 | 0.25
3 | 4 |  | COc1ccc(C(=O)c2ccc3ccccc3c2)c(OC)c1OC | > 10 | 1.7 | > 10
4 |  |  | COc1ccc(/C=C\c2cc(OC)c(OC)c(OC)c2)cc1O [COMBRETASTATIN A4] | 0.003 |  | 
5 |  | 0 | COc1cc(C(O)c2ccc3ccccc3c2)cc(OC)c1OC (centres undefined) |  |  | 
6 | 5 |  | COc1cc(C(OC(C)=O)c2ccc3ccccc3c2)cc(OC)c1OC (centres undefined) | > 10 | 3.8 | > 10
7 |  |  | COc1cc(/C=C\c2ccc3ccccc3c2)cc(OC)c1OC [NAPHTHYLCOMBRETASTATIN] | 0.02 | 0.02 | 0.02
8 | 0 |  | COc1ccc(C(O)c2ccc3ccccc3c2)c(OC)c1OC (centres undefined) | > 10 | > 10 | > 10
